Results reported in US10155749B2, “Substituted benzimidazolium compounds useful in the treatment of respiratory diseases” (Boehringer Ingelheim International GmbH, priority 2015, dated 2018).

Assays:
[1] = Permeability in CALU-3 cells; format: in vitro ADME; conditions: human, CALU-3 monolayers, pH 7.4, 37° C., 10 μM compound; for Papp A→B at 90 min, 10 μM: apical-to-basal; for Papp B→A at 90 min, 10 μM: basal-to-apical
Procedure: Permeability in CALU-3 Cells:
Permeability measurements across polarized, confluent CALU-3 cell monolayers grown on permeable filter supports are used to provide information on the potential of a compound to pass the lung epithelium. Apparent permeability coefficients (Papp) of the compounds across the CALU-3 cell monolayers are measured (pH 7.4, 37° C.) in apical-to-basal (AB) and basal-to-apical (BA) transport direction.
CALU-3 cells (1-2×10^5 cells/1 cm^2 area) are seeded on filter inserts (Costar transwell polycarbonate filters, 0.4 μm pore size) and cultured (for 10-12 days DMEM) until tight monolayers are formed. Compounds of interest are dissolved in appropriate solvent (DMSO, 10 mM stock solution). Stock solutions are diluted with HTP-4 buffer (128.13 mM NaCl, 5.36 mM KCl, 1 mM MgSO4, 1.8 mM CaCl2, 4.17 mM NaHCO3, 1.19 mM Na2HPO4×7H2O, 0.41 mM NaH2PO4×H2O, 15 mM HEPES, 20 mM glucose, 0.25% BSA, pH 7.4) to prepare the transport solutions (10 μM compound, final DMSO<=0.5%). The transport solution (TL) is applied to the apical or basolateral donor side for measuring A-B or B-A permeability (3 filter replicates), respectively. The receiver side contains the same buffer as the donor side. After 30 min of accommodation, samples are collected at the start t0=0 min and at the end of the experiment tn=90 min from the donor and at 0, 30, 60, and 90 min also from the receiver chamber. Volume removed is […] by HTP-4 buffer. The compound concentration in the samples is measured by HPLC-MS/MS or scintillation counting. The permeability coefficient (Papp) and efflux ratio are calculated according to: Papp [cm/s]=(concentration receiver [nM]*volume receiver [mL]/time interval [sec])*(1/filter area)*(1/donor concentration [nM]).

[2] = target: T1, ENaC (Epithelial Sodium Channel) (Mus musculus, UniProt Q61180+Q9WU38+Q9WU39); test: Ussing Chamber assay (short circuit current, amiloride sensitive I_SC) in M-1 cells; format: cell-based; conditions: Mouse kidney M-1 cells, apical application, 37° C.
T1 construct: Mouse kidney M-1 cells were cultivated in DMEM containing 5% FCS and 5 μM dexamethasone; endogenous in cells; host or cells: Mouse kidney M-1 cells
T1 sequence (Q61180 1-699): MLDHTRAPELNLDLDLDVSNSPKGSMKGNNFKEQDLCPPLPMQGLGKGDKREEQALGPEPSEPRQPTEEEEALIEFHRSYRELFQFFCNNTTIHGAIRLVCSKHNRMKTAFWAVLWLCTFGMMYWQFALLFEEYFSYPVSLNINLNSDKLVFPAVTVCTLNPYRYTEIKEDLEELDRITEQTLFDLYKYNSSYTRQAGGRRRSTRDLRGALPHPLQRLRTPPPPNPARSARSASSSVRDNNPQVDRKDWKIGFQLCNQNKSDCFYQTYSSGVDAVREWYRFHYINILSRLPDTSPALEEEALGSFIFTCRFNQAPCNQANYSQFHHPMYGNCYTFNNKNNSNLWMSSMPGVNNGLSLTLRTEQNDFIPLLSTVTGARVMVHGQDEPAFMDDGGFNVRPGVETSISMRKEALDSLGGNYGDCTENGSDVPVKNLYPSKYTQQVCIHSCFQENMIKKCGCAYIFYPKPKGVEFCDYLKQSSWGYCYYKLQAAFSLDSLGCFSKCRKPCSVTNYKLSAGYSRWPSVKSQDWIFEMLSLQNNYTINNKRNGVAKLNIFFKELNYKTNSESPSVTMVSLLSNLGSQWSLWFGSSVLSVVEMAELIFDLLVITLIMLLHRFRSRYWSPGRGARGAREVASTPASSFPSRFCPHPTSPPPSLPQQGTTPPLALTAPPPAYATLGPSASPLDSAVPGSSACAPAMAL
T1 sequence (Q9WU38 1-638): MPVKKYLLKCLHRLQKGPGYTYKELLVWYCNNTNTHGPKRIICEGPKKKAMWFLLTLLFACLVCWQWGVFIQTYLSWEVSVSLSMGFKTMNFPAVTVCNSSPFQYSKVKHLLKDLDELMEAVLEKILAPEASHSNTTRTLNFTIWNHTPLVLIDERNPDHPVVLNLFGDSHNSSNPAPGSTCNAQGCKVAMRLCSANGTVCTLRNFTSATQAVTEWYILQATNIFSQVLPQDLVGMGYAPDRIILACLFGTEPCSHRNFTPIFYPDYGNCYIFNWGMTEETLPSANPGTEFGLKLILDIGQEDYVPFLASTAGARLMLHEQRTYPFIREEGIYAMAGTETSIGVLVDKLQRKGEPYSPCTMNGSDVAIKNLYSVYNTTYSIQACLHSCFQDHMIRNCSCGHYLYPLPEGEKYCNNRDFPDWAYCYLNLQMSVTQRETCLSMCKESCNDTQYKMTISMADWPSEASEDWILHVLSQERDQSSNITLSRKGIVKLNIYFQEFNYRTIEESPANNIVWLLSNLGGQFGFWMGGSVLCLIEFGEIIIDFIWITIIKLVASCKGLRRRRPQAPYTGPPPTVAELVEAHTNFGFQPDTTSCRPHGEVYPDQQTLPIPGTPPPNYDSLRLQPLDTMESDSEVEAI
T1 sequence (Q9WU39 1-655): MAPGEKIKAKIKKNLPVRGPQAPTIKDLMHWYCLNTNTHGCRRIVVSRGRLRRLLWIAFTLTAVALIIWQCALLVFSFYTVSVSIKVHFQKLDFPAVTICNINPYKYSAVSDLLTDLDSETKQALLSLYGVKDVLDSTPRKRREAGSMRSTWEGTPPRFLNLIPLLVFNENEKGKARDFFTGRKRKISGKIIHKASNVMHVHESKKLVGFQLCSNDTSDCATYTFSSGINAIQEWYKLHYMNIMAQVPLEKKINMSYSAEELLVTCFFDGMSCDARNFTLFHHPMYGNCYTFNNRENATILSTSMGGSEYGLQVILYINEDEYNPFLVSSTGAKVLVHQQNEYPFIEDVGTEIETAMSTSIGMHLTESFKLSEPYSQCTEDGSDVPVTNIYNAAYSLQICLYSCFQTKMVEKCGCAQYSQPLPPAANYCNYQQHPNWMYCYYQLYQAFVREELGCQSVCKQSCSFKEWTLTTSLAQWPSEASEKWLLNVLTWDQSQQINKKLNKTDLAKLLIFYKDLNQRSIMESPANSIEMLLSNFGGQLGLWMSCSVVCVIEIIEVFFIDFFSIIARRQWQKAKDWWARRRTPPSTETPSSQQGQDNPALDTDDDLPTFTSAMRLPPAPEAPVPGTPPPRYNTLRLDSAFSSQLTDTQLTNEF
Procedure: The IC50 values of the example compounds given above were determined in the Ussing Chamber assay.
Ussing Chamber: Mouse kidney M-1 cells were cultivated in DMEM containing 5% FCS and 5 μM dexamethasone for 10 to 12 days on polyester transwell filters. Filters were inserted into a teflon-coated well-plate which fit into the ussing chamber system. Prior to measurement the medium of M-1 cells was replaced with Caco-2 transport buffer (Invitrogen, Germany). During measurements, the Ussing chamber temperature was kept at 37° C. Short circuit currents (I_sc) were measured in the voltage-clamp mode with the software package Lab View for data acquisition and analysis. The transepithelial electrical resistance (TEER) was determined by the application of voltage steps of ±5 mV every 5 sec. Compounds were administered at a final concentration of 3 μM or at increasing concentrations (1-3-10 μM) to the apical solution. At the end of each experiment the amiloride sensitive I_SC was measured by adding 3 μM amiloride to the apical compartment. Results are expressed as inhibition in percent of the amiloride effect or as IC50.

Row | Papp A→B at 90 min, 10 μM [1] [×10⁻⁶ cm/s] | Papp B→A at 90 min, 10 μM [1] [×10⁻⁶ cm/s] | IC50 [2] [nM] | SMILES
1 | 0.09 | 0.1 | 3 | CCn1c(CNC(=O)c2nc(Cl)c(N)nc2N)[n+](CC)c2cc(C(=O)N3CCOCC3)c(N3CCOCC3)cc21 [Example 5.02]
2 | 0.3 | 0.3 | 34 | CCCCCOc1cc2c(cc1C(=O)N1CCN(C(=O)Cc3ccccn3)CC1)[n+](CC)c(CNC(=O)c1nc(Cl)c(N)nc1N)n2C[C@H](C)O.O=C([O-])C(F)(F)F [Example 4.15]
3 | 0.08 | 0.08 | 15 | CCNC(=O)c1cc2c(cc1OCC(=O)NCCN(C)C)n(CC)c(CNC(=O)c1nc(Cl)c(N)nc1N)[n+]2CC.Cl.[Cl-] [Example 3.17]
4 | 0.3 | 0.2 | 19 | CC[n+]1c(CNC(=O)c2nc(Cl)c(N)nc2N)n(C[C@H](C)O)c2cc(N(C)C)c(C(=O)N3CCN(C(=O)Cc4ccccn4)CC3)cc21.O=C([O-])C(F)(F)F [Example 4.14]
5 | – | – | 0.4 | CCn1c(CNC(=O)c2nc(Cl)c(N)nc2N)[n+](CC)c2ccc(OCCNC(=O)CN3CCN(C)CC3)cc21 [Example 4.05]
6 | – | – | 8 | CCNC(=O)COc1cc2c(cc1C(=O)NC1CCNCC1)[n+](CC)c(CNC(=O)c1nc(Cl)c(N)nc1N)n2CC [Example 6.03]
7 | – | – | 1 | CCn1c(CNC(=O)c2nc(Cl)c(N)nc2N)[n+](CC)c2cc(F)c(C(=O)NCCCN(C)C)cc21 [Example 3.07]
8 | – | – | 14 | CCn1c(CNC(=O)c2nc(Cl)c(N)nc2N)[n+](CC)c2cc(C(=O)O)c(N3CCOCC3)cc21 [Example 6.01]
9 | – | – | 0.1 | CCn1c(CNC(=O)c2nc(Cl)c(N)nc2N)[n+](CC)c2ccc(OCC(=O)NC3CCNCC3)cc21 [Example 3.24]
10 | – | – | 19 | CCCCCOc1cc2c(cc1C(=O)N1CCN(C(=O)c3cncc(O)c3)CC1)[n+](CC)c(CNC(=O)c1nc(Cl)c(N)nc1N)n2C[C@H](C)O [Example 4.18]
11 | – | – | 0.4 | CCn1c(CNC(=O)c2nc(Cl)c(N)nc2N)[n+](CC)c2ccc(C(=O)NCCNC(C)=O)cc21 [Example 3.08]
12 | – | – | 4 | CCNC(=O)COc1cc2c(cc1C(=O)NC1CCN(C(C)=O)CC1)[n+](CC)c(CNC(=O)c1nc(Cl)c(N)nc1N)n2CC [Example 4.13]
13 | – | – | 2 | CCOc1cc2c(cc1C(=O)N1CCN(C(=O)Cc3ccccn3)CC1)[n+](CC)c(CNC(=O)c1nc(Cl)c(N)nc1N)n2CC [Example 4.12]
14 | – | – | 0.3 | CCn1c(CNC(=O)c2nc(Cl)c(N)nc2N)[n+](CC)c2ccc(OCC(=O)Nc3cncc([O-])c3)cc21 [Example 3.03]

More lines, now with the values behind:

Row | SMILES | Papp A→B at 90 min, 10 μM [1] [×10⁻⁶ cm/s] | Papp B→A at 90 min, 10 μM [1] [×10⁻⁶ cm/s] | IC50 [2] [nM]
15 | CCCCCCN(C)C(=O)c1cc2c(cc1O[C@H]1COC[C@@H]1O)n(CCO)c(CNC(=O)c1nc(Cl)c(N)nc1N)[n+]2CC.O=C([O-])C(F)(F)F [Example 1.15] | 0.2 | 0.08 | 8
16 | CC[n+]1c(CNC(=O)c2nc(Cl)c(N)nc2N)n(C[C@H](C)O)c2cc(OCCN(CP(C)(C)=O)C(=O)CC(C)C)ccc21.O=C([O-])C(F)(F)F [Example 1.05] | 0.1 | 0.01 | 1
17 | CC[n+]1c(CNC(=O)c2nc(Cl)c(N)nc2N)n(CCO)c2cc(OCC(=O)NCCC[n+]3cccc([O-])c3)ccc21.O=C([O-])C(F)(F)F [Example 1.01] | 0.04 | 0.06 | 2
18 | CC[n+]1c(CNC(=O)c2nc(Cl)c(N)nc2N)n(CC2CC2)c2cc(OCC(=O)N(C)Cc3nc(C)ccc3O)ccc21 [Example 1.08] | 0.08 | 0.2 | 1
19 | CC[n+]1c(CNC(=O)c2nc(Cl)c(N)nc2N)n(C[C@H](C)O)c2cc(N(C)C)c(C(=O)N3CCN(C(=O)OC(C)(C)C)CC3)cc21.O=C([O-])C(F)(F)F [Example 1.02] | 0.08 | 0.1 | 25
20 | CCCn1c(CNC(=O)c2nc(Cl)c(N)nc2N)[n+](C)c2ccc(OCC(=O)N(C)Cc3nc(C)ccc3O)cc21 [Example 1.07] | – | – | 3
21 | CCn1c(CNC(=O)c2nc(Cl)c(N)nc2N)[n+](CCO)c2cc(OCC(=O)N3CCN(C(C)=O)CC3)ccc21 [Example 1.14] | – | – | 3
22 | CCn1c(CNC(=O)c2nc(Cl)c(N)nc2N)[n+](CC)c2cc(C(=O)NC3CCN(C(=O)OC(C)(C)C)CC3)c(OCC(=O)OC(C)(C)C)cc21 [Example 1.13] | – | – | 9
23 | CCOc1cc2c(cc1C(=O)N1CCN(C(=O)OC(C)(C)C)CC1)[n+](CC)c(CNC(=O)c1nc(Cl)c(N)nc1N)n2CC [Example 1.09] | – | – | 7
24 | CC[n+]1c(CNC(=O)c2nc(Cl)c(N)nc2N)n(CC2CCCCC2)c2cc(OCC[n+]3cccc(O)c3)ccc21 [Example 1.03] | – | – | 5
25 | CCNC(=O)c1cc2c(cc1OCC(=O)OC(C)(C)C)n(CC)c(CNC(=O)c1nc(Cl)c(N)nc1N)[n+]2CC [Example 1.11] | – | – | 10
